For three compounds, Km results are on record in publication PMC9638991, “Designed High-Redox Potential Laccases Exhibit High Functional Diversity” (ACS Catalysis, 2022).

Common to all, as to test: colorimetric oxidation kinetics, purified enzyme
Holding throughout (format): biochemical

Test [1] concerns the target T1, Th3 (Trametes hirsuta, UniProt B2L9C1, N227E/S448D, form not given).
T1 construct: gene Lac; secreted from S. cerevisiae (pJRoC30), purified fraction, about 56 kDa; wild type not expressible
Particulars: optimal pH, O2 as co-substrate.

The target of test [2] is T2, Th3 (Trametes hirsuta, UniProt B2L9C1, F286M/A414S, form not given).
T2 construct: gene Lac
T2 sequence (B2L9C1 entry or part of it F286M/A414S, form open): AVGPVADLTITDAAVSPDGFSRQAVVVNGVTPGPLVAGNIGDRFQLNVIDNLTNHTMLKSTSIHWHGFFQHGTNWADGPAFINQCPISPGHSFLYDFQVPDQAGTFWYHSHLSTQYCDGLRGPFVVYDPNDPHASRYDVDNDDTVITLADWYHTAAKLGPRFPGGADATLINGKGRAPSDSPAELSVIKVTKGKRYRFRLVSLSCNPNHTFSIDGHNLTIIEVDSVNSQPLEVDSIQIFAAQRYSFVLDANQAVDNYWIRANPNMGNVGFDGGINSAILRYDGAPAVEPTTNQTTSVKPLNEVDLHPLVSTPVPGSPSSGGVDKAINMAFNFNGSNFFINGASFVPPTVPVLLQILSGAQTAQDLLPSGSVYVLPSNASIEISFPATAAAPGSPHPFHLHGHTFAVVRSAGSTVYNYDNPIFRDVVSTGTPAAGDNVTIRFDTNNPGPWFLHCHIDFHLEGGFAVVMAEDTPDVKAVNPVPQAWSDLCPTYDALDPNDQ
The settings on record: optimal pH 5; O2 as co-substrate.

For test [3], the target named is T3, Th3 (Trametes hirsuta, UniProt B2L9C1).
T3 construct: gene Lac; secreted from S. cerevisiae (pJRoC30), purified fraction, about 56 kDa; wild type not expressible
T3 sequence (B2L9C1 entry or part of it): as the sequence (B2L9C1 entry or part of it F286M/A414S, form open) above, with M265F, S393A counted along it
Particulars: optimal pH 4, O2 as co-substrate.

The next test deals with T4, OB-1 (basidiomycete PM1, UniProt Q12571).
T4 construct: S. cerevisiae expression, purified
T4 sequence (Q12571 entry or part of it): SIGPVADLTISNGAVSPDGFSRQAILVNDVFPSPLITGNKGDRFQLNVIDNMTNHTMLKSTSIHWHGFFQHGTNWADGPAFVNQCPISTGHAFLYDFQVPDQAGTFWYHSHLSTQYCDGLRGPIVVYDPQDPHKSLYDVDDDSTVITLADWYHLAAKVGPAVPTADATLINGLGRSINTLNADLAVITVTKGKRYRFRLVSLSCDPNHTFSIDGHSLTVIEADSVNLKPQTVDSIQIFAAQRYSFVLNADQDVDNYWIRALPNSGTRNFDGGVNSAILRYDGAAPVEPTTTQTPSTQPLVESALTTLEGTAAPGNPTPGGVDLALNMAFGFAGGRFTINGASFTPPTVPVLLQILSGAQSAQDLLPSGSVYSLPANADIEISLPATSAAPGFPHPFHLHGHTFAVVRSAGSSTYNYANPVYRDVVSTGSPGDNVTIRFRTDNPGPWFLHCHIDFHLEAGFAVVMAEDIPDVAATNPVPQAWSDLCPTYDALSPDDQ
The settings on record: optimal pH; O2 as co-substrate.

For test [4], the target named is T5, Th3 (Trametes hirsuta, UniProt B2L9C1, N227H/F478W, form not given).
T5 construct: gene Lac; secreted from S. cerevisiae (pJRoC30), purified fraction, about 56 kDa; wild type not expressible
T5 sequence (B2L9C1 entry or part of it N227H/F478W, form open): as the sequence (B2L9C1 entry or part of it F286M/A414S, form open) above, with N206H, M265F, S393A, F457W counted along it
Particulars: optimal pH; O2 as co-substrate.

Where [5] appears, read: text prints 'for Th3.7' inside a sentence on Th3.10 (apparent misprint, check Table S4).

T1 sequence (B2L9C1 entry or part of it N227E/S448D, form open): as the sequence (B2L9C1 entry or part of it F286M/A414S, form open) above, with N206E, M265F, S393A, S427D counted along it

Broadly, the Km is the substrate concentration at which the rate is half of its maximum. Consider `COc1ccccc1O` [GUA, guaiacol], for which the Km worked out at 667 ± 36 µM on Th3 [1], 555 ± 85 µM on Th3 [2], 1790 ± 160 µM at Th3 [3] and 1070 ± 30 µM on OB-1.

As for `COc1cccc(OC)c1O` [DMP, 2,6-dimethoxyphenol], the Km was 17.1 µM at Th3 [1] (setting [5]); 44 µM at Th3 [4]; 1280 µM on Th3 [3] (purified fraction, values estimates); 165 ± 2 µM at OB-1.

Consider `COc1cc(/C=C/C(=O)O)cc(OC)c1O` [SA, sinapic acid], for which the Km at Th3 [1] (setting [5]) is 150 µM; on Th3 [4] it was 185 µM; at OB-1, 81 ± 15 µM.
